According to PMC6037779, “Repurposing drugs to target the malaria parasite unfolding protein response” (Scientific Reports, 2018):
Read-outs that look alike come from different tables or passages of the source.

What was measured:
[1] = target: T1, huGRP78-NBD (Homo sapiens, UniProt P11021); assay: SPR (Biacore) binding to human GRP78-NBD
T1 construct: PfGRP78-NBD wild type and mutant, and human GRP78-NBD were buffered in 25 mM hepes pH 7.5
Experimental: (§1) To quantify the binding affinities of PfGRP78-NBD for the selected compounds, dissociation constants (Kd) were determined by surface plasmon resonance (SPR). […] Purified PfGRP78-FL, PfGRP78-NBD wild-type and mutant, and human GRP78-NBD were immobilized on a CM5 sensorchip using NHS/EDC coupling following the manufacturer protocol to a level of <10,000 RUs, a reference surfaces without immobilized proteins served as a control for nonspecific binding and refractive index changes. […] The running buffer was 10 mM HEPES, pH 7.4, 150 mM NaCl, 0.005% P20, 1% DMSO and 2 mM MgCl2. Buffer only injections were used as blanks. The Biacore responses recorded during the 30 seconds of the injection were used to estimate the association constant (kon) and the 300 seconds after the injection were used to estimate the dissociation constant (koff). All dissociation and kinetic constants were estimated using double subtracted sensorgrams[40] using BiaEvaluation Software (GE Healthcare). All the reported parasite dissociation constants (Kd) were estimated with affinity analysis, and all the reported human Kds were calculated from kinetic constants.

[2] = target: T2, PfGRP78-NBD wt (Plasmodium falciparum, UniProt Q05866); assay: biochemical; assay type: binding
T2 construct: His-tag (pET28-MHL, TEV site) (N, cleaved yes); made in house; host or cells: E. coli BL21(DE3)
Experimental: as §1

[3] = target: T3, PfGRP78-NBD (Plasmodium falciparum, UniProt Q05866); assay: DSF thermal shift, PfGRP78-NBD; assay type: binding; conditions: compound 0.5 mM; shifts above or below 1 °C significant
T3 construct: His-tag (pET28-MHL, TEV site) (N, cleaved yes); made in house; host or cells: E. coli BL21(DE3)
Experimental: The Plasmodium and human GRP78 NBD differences were further characterized by measuring their interaction with ATP, ADP, and several compounds referenced in the literature as GRP78 inhibitors (Fig. 3a). Initially, their binding was determined using a DSF (Differential Scanning Fluorimetry) assay. In this assay, an interaction between the chaperone and a compound was measured as a change in the protein’s melting temperature (Tm), by subtracting the Tm of the protein by itself to the melting value of the protein in the presence of the compound. Differences above or below 1 °C between the melting temperatures (ΔTm) were considered indicative of a protein-compound interaction. As expected, the Plasmodium GRP78 chaperone interacted with both ATP and ADP. Four of the six compounds tested had significant effects on protein thermal stability (Fig. 3b).
DSF screening was carried out using a CFX96 Touch Real-Time PCR Detection System (BioRad, California). The PfGRP78-FL, PfGRP78-NBD wild type and mutant, and human GRP78-NBD were buffered in 25 mM hepes pH 7.5, 250 mM NaCl and assayed in a 96-well format. […]. The concentration was optimized for each protein to avoid saturation of the fluorescence detector. The GRP78 inhibitors were used at a final concentration of 0.5 mM. SYPRO Orange (Life Technologies, USA) was added as a fluorescence probe in a dilution of 1:1000. The experiments were conducted between 18 °C to 90 °C at a heating rate of 1 °C per minute. The recorded fluorescence reads were fitted to the Boltzmann sigmoid function using DMAN software. The inflection point of each fitted curve is defined as the melting temperature (Tm). The observed temperature shift, ΔTm, was recorded as the difference between Tm of the protein with ligand minus Tm of the protein without ligand. Thermal shifts above or below 1 °C were considered significant.

[4] = tested on: Plasmodium falciparum W2; assay: In vitro growth inhibition assay (SYBR Green I), strain W2; assay type: cell-based; conditions: read-out: EC50, growth inhibition, P. falciparum W2
Experimental: (§2) A major goal of our study was to evaluate the drug target potential of P. falciparum GRP78, thus we evaluated the effect of the chaperone inhibition on the malaria parasite. Our approach took advantage of several GRP78 inhibitors (Fig. 3a) previously characterized against human cancer cell lines, which were commercially available[20],[24]–[27]. These compounds were tested against two different parasite strains with opposite sensitivity towards the antimalarial drug chloroquine, 3D7 (sensitive) and W2 (resistant). […] A synchronized P. falciparum culture, with over 80% ring forms, was used in the growth inhibition assay. Each strain was assayed at 0.5% parasitaemia and 1.5% hematocrit. A 190 µL aliquot of parasite culture was dispensed per well to microplates that were pre-dispensed with the compounds at various dilutions. […] Dilutions of GRP78 inhibitors and DHA were prepared in water with a final concentration of DMSO below 0.05% (v/v). […] After incubation, the plates were subject to a freeze-thaw cycle (−80 °C) and the parasite growth was quantified by the SYBR Green I method as previously described. Briefly, 100 µl of homogenized parasite culture was transferred into 96-well black plates. 100 µl of SYBR Green lysis buffer (2x SYBR Green I, 100 mM Tris-HCl pH 7.5, 10 mM EDTA, 0.016% Saponin and 1.6% Triton X-100) were added to each well. The plates were incubated at room temperature in darkness for 1 hour.
(§3) Growth inhibition experiments were conducted at least three times per compound. […] The statistical analysis was performed with the software Prism 7 (GraphPad Software, San Diego, CA).

[5] = tested on: Plasmodium falciparum 3D7; assay: In vitro growth inhibition assay (SYBR Green I), strain 3D7; assay type: cell-based; conditions: read-out: EC50, growth inhibition, P. falciparum 3D7
Experimental: as §2, §3

[6] = tested on: HCT-116; assay: Growth inhibition of human cell line; assay type: cell-based
Experimental: as §3

[7] = target: T1, huGRP78-NBD; assay: DSF thermal shift, human GRP78-NBD; assay type: binding; conditions: compound 0.5 mM
Experimental: (§4) Initially, their binding was determined using a DSF (Differential Scanning Fluorimetry) assay. In this assay, an interaction between the chaperone and a compound was measured as a change in the protein’s melting temperature (Tm), by subtracting the Tm of the protein by itself to the melting value of the protein in the presence of the compound. Differences above or below 1 °C between the melting temperatures (ΔTm) were considered indicative of a protein-compound interaction.
(§5) DSF screening was carried out using a CFX96 Touch Real-Time PCR Detection System (BioRad, California). The PfGRP78-FL, PfGRP78-NBD wild type and mutant, and human GRP78-NBD were buffered in 25 mM hepes pH 7.5, 250 mM NaCl and assayed in a 96-well format. The final concentration of the protein sample was optimized between 0.05 and 0.2 mg/ml for each protein. The concentration was optimized for each protein to avoid saturation of the fluorescence detector. The GRP78 inhibitors were used at a final concentration of 0.5 mM. SYPRO Orange (Life Technologies, USA) was added as a fluorescence probe in a dilution of 1:1000.

[8] = target: T4, PfGRP78-FL (Plasmodium falciparum, UniProt Q05866, DEL449-452/N453V/P455G/Q454G/T226A); assay: DSF thermal shift, PfGRP78 full-length; assay type: binding; conditions: read-out: ΔTm (DSF), PfGRP78-FL
T4 construct: His-tag (TEV site) (N, cleaved yes); made in house; host or cells: E. coli BL21(DE3); gene synthesized by Life Technologies
Experimental: as §4, §5

[9] = target: T5, PfGRP78-NBD mut (Y39F) (Plasmodium falciparum, UniProt Q05866, Y39F); assay: SPR (Biacore) binding to PfGRP78-NBD Y39F mutant; conditions: ± standard error, 25 °C, read-out: affinity constant (Kd) determined by SPR, PfGRP78-NBD mut
T5 construct: His-tag (pET28-MHL, TEV site) (N, cleaved yes); made in house; host or cells: E. coli BL21(DE3)
Experimental: To quantify the binding affinities of PfGRP78-NBD for the selected compounds, dissociation constants (Kd) were determined by surface plasmon resonance (SPR). […] Purified PfGRP78-FL, PfGRP78-NBD wild-type and mutant, and human GRP78-NBD were immobilized on a CM5 sensorchip using NHS/EDC coupling following the manufacturer protocol to a level of <10,000 RUs, a reference surfaces without immobilized proteins served as a control for nonspecific binding and refractive index changes. Seven different concentrations of the ligands between 0.4 nM to 1 mM, were injected in triplicate over the sensor chip at 30 µL/min in random order. The running buffer was 10 mM HEPES, pH 7.4, 150 mM NaCl, 0.005% P20, 1% DMSO and 2 mM MgCl2. Buffer only injections were used as blanks. The Biacore responses recorded during the 30 seconds of the injection were used to estimate the association constant (kon) and the 300 seconds after the injection were used to estimate the dissociation constant (koff). All dissociation and kinetic constants were estimated using double subtracted sensorgrams[40] using BiaEvaluation Software (GE Healthcare). All the reported parasite dissociation constants (Kd) were estimated with affinity analysis, and all the reported human Kds were calculated from kinetic constants.

[10] = ± standard error, calculated from kinetic constants, 25 °C
[11] = ± standard error, affinity analysis, 25 °C
[12] = Plasmodium falciparum, W2, 72 h
[13] = Plasmodium falciparum, 3D7, 72 h

T1 sequence (P11021 26-407 limits assumed): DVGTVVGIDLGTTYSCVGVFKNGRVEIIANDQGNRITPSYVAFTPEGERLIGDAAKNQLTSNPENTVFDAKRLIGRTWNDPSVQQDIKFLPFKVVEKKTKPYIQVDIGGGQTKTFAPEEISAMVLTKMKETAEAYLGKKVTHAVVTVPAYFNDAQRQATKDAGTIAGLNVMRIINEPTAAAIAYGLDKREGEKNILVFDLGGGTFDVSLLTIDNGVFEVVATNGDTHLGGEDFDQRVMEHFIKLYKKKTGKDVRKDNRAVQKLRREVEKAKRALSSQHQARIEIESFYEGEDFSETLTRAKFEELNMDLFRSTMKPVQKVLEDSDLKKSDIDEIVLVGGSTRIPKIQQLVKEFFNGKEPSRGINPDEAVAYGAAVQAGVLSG

Structure (SMILES)	affinity constant (Kd) determined by SPR, huGRP78-NBD [1, 10]	affinity constant (Kd) determined by SPR, PfGRP78-NBD wt [2, 11]	DSF effect on thermal stability of PfGRP78-NBD [3]	EC50 [4, 12]	EC50 [5, 13]	further results
CCN(CC)c1ncnc2c1ncn2[C@H]1O[C@@H](COP(=O)(O)OP(=O)(O)C(Br)(Br)P(=O)(O)O)[C@H](O)[C@@H]1O [ARL-67156]	N.B.	N.B.	non-binders	–	–	–
C[C@H]1[C@@H](O)O[C@@H]2O[C@@]3(C)CC[C@H]4[C@H](C)CC[C@@H]1[C@@]24OO3 [DHA]	–	–	–	–	–	EC50 ([4]; chloroquine-resistant strain, 72 hours, average of three ± SD): 0.1 ± 0.02 nM; EC50 ([5]; chloroquine-sensitive strain, 72 hours, average of three ± SD): 0.4 ± 0.07 nM
N#Cc1ccc(COCC2OC(n3c(NCc4ccc(Cl)c(Cl)c4)nc4c(N)ncnc43)C(O)C2O)cc1 (centres unmarked) [VER-155008]	–	–	increased the thermal stability	39500 nM	82100 ± 49700 nM	Kd [2]: 164000 ± 13600 nM; EC50 ([6]; HCT-116, human cell line, average of three ± SD, read-out: EC50, growth inhibition, HCT-116): 15710 ± 70 nM
C=Cc1cc(OC)c2c(c1)c(=O)oc1c2cc(OC)c2c(O)ccc(C3OC(C(C)O)C(O)C3O)c21 (centres unmarked) [Gilvocarcin V]	N.B.	N.B.	increased the thermal stability	80 ± 40 nM	20 ± 4 nM	affinity constant (Kd) determined by SPR, huGRP78-NBD ([1]; ± standard error, calculated from kinetic constants, 25 °C, listed as Gilvocarcin A): too weak to accurately determine its dissociation constant; affinity constant (Kd) determined by SPR, PfGRP78-NBD wt ([2]; ± standard error, affinity analysis, 25 °C, listed as Gilvocarcin A): too weak to accurately determine its dissociation constant
CCn1c(=O)/c(=C2\Sc3ccccc3N2C)s/c1=C\c1cccc[n+]1CC [MKT-077]	–	–	significant thermal destabilization	70 ± 30 nM	70 ± 20 nM	DSF effect on thermal stability of human GRP78-NBD [7]: destabilized; ΔTm at 500 µM [8]: 0.6 °C; Kd [1]: 16000 ± 170 nM; Kd [2]: 16400 ± 1700 nM; times more selective towards P. falciparum ([6]; HCT-116 vs P. falciparum EC50, Results text b30): 14 times; EC50 ([6]; Homo sapiens, HCT-116, read-out: EC50, growth inhibition, HCT-116): 980 ± 230 nM
CN(NC(=O)CC(=O)NN(C)C(=S)c1ccccc1)C(=S)c1ccccc1 [Elesclomol]	N.B.	N.B.	non-binders	–	–	EC50 ([4]; Plasmodium falciparum, W2, chloroquine-resistant strain, 72 hours, average of three ± SD): 60 ± 10 nM; EC50 ([5]; Plasmodium falciparum, 3D7, chloroquine-sensitive strain, 72 hours, average of three ± SD): 50 ± 17 nM
CCN(CC)CCCC(C)Nc1ccnc2cc(Cl)ccc12 (centres unmarked) [CQ, chloroquine]	–	–	–	230 ± 30 nM	50 ± 11 nM	–
Nc1ncnc2c1ncn2[C@@H]1O[C@H](COP(=O)(O)OP(=O)(O)OP(=O)(O)O)[C@@H](O)[C@H]1O [ATP]	–	–	interacted	–	–	Kd [9]: 312000 ± 15000 nM; Kd ([1]; ± standard error, calculated from kinetic constants, 25 °C, read-out: affinity constant (Kd) determined by SPR, huGRP78-NBD): 14000 ± 7000 nM; fold decrease in affinity of malaria chaperone compared to the human counterpart ([2]; SPR Kd, PfGRP78-NBD vs huGRP78-NBD): 23 fold; Kd ([2]; ± standard error, affinity analysis, 25 °C, read-out: affinity constant (Kd) determined by SPR, PfGRP78-NBD wt): 333000 ± 74000 nM
